Data published in the METLIN SMRT retention time set (Domingo-Almenara et al. 2019).

Assay: gradient 5% acetonitrile 3 min, to 50% in 2 min, to 85% in 15 min, held 3 min, 100 µL/min
Conditions: column: Zorbax Extend-C18 2.1 x 50 mm; eluents: water / acetonitrile, 0.1% formic acid
Procedure, shortened: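 Data were gathered over 3 months by HPLC coupled to a quadrupole time-of-flight mass spectrometer, operated in positive and negative ionization mode. Mixtures of ~100 pure standards ran on a Zorbax Extend-C18 column (2.1 × 50 mm, 1.8 μm) at 100 μL/min, with water and acetonitrile each containing 0.1% formic acid and dead and dwell volumes of 40 μL and 900 μL. Retention time was read from adduct peaks picked by computer and checked manually.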

Cn1cc(CCN2CCN(S(=O)(=O)c3ccc4c(c3)CCC4)CC2)c2cccnc21
RP-LC retention time: 668 s

O=C(CCc1nc2cccnc2n1-c1ccccc1)NCCc1c[nH]c2ccccc12
RP-LC retention time: 706 s

Cc1ccc(-c2csc(Cc3nc(-c4ccccc4Cl)no3)n2)cc1
RP-LC retention time: 1280 s

CN1C(=O)c2ccccc2Oc2ccc(C(=O)NC3CCCCCC3)cc21
RP-LC retention time: 958 s

CCc1nc2cc(N3CCC(C(=O)NC(C)C)CC3)cnc2nc1CC
RP-LC retention time: 704 s

COc1cccc(C(=O)NCC(=O)Nc2nc3ccccc3[nH]2)c1
RP-LC retention time: 624 s

Cc1ccc(Nc2cc(C)nc(N3CCN(C(=O)Nc4cccc(C)c4)CC3)n2)cc1
RP-LC retention time: 1460 s

CCOCc1nc(C2CCCN(C(=O)C3(c4ccccc4)CC3)C2)no1 (configuration not stated)
RP-LC retention time: 873 s

Cc1cccc(C(C)c2cnc[nH]2)c1C (configuration not stated)
RP-LC retention time: 689 s

CN(C)CCCNC(=O)Cn1c(=O)n(-c2ccc(F)cc2)c2ncccc21
RP-LC retention time: 577 s

COc1cc(Cl)ccc1C(=O)N1C[C@@H]2C[C@H](NC(=O)c3ccccc3)[C@H]1C2
RP-LC retention time: 759 s

COc1ccc(-c2nc(C)cc(C)c2CNS(=O)(=O)c2ccc(F)cc2)cc1
RP-LC retention time: 654 s

c1cncc(CN2CCc3c(sc4ncnc(N5CCOCC5)c34)C2)c1
RP-LC retention time: 649 s

CN1C(=O)C(CC(=O)N2CCCCC2)=C2CCCCC21 (configuration not stated)
RP-LC retention time: 677 s

Clc1ccc(C2Cn3nnc(-c4nc(-c5ccccn5)no4)c3CO2)cc1 (configuration not stated)
RP-LC retention time: 936 s

CC(C)n1cnc2cc(CNC(=O)Cc3cccs3)ccc21
RP-LC retention time: 600 s

COc1ccc(-c2nc(N(CCCN3CCOCC3)Cc3ccco3)c3ccccc3n2)cc1
RP-LC retention time: 588 s

CCN(CC)S(=O)(=O)c1cc(-c2nnc(-c3ccccc3OC)o2)ccc1Cl
RP-LC retention time: 1090 s

O=C(c1cc(Cl)ccc1F)N1CCC2(CC1)NC(=O)N(Cc1ccc(F)cc1)C2=O
RP-LC retention time: 852 s

CN1Cc2ccccc2-n2ccnc2C12CCN(C(=O)Cc1cccc(F)c1)CC2
RP-LC retention time: 666 s

COc1ccc(CNC(=O)c2cc3c(s2)N(C)CCC3)c(OC)c1
RP-LC retention time: 926 s

CN(CC1(C)CCOCC1)C(=O)c1ccccc1Br
RP-LC retention time: 806 s

CC1=NS(=O)(=O)N(Cc2ccccc2)C=C1C(=O)OCc1cc(F)ccc1F
RP-LC retention time: 1080 s

CCNC(=O)NCC1CCN(C(=O)NC(C)(C)C)CC1
RP-LC retention time: 597 s

CCOc1ccccc1C(=O)N1CCC(C(=O)NCC(F)(F)F)CC1
RP-LC retention time: 665 s

Cc1ccc(CNC(=O)C2CCN(S(C)(=O)=O)c3cc(Cl)ccc3O2)cc1 (configuration not stated)
RP-LC retention time: 955 s

O=C(c1nnc(-c2ccc(S(=O)(=O)N3CCCCC3)cc2)o1)N1CCC(Cc2ccccc2)CC1
RP-LC retention time: 1230 s

CCC(=O)Nc1ccc(CCc2nc3ccc(C(=O)NC(C)Cc4ccco4)cc3[nH]2)cc1 (configuration not stated)
RP-LC retention time: 630 s

CCCN(C(=O)c1ccc2c(c1)OCO2)c1nc(-c2ccccc2)cs1
RP-LC retention time: 1260 s

O=C(CSc1nc(=O)n2cc(Cl)ccc2n1)Nc1ccc(OC(F)(F)F)cc1
RP-LC retention time: 820 s

O=C(c1ccc(Br)cc1)N1CCc2nc(-c3ccc(Cl)cc3)ncc2C1
RP-LC retention time: 1160 s

Cn1cccc1-c1cc2n(n1)CCC(=O)N2CCCC(=O)NCCCN1CCCCCC1
RP-LC retention time: 607 s

Cc1c(Cl)cccc1NC(=O)C(=O)NCC(O)c1ccc(C(F)(F)F)cc1 (configuration not stated)
RP-LC retention time: 936 s

Cn1c(C(=O)N2CCN(c3ccccn3)CC2)cc2sccc21
RP-LC retention time: 598 s

COCc1cn(C2CN(C(=O)c3sc(C)nc3C)C2)nn1
RP-LC retention time: 589 s

COC(=O)c1sccc1S(=O)(=O)N1CCN(c2ccccn2)CC1
RP-LC retention time: 624 s

Cc1ccc(F)cc1NC(=O)c1c(O)c2cccnc2n(-c2ccc(F)cc2)c1=O
RP-LC retention time: 1290 s

Cc1ccc2c(c1)N(S(C)(=O)=O)CCC(C(=O)Nc1ccccc1Br)O2 (configuration not stated)
RP-LC retention time: 1040 s

CNC(=O)c1cc(NC)nc2c(Cl)cccc12
RP-LC retention time: 568 s

O=C(Cn1cc(-c2ccccc2)c2ncnc(N3CCOCC3)c21)N1CCCC1
RP-LC retention time: 651 s

CN(C)N1C(=O)c2c(Cl)c(Cl)c(Cl)c(Cl)c2C1=O
RP-LC retention time: 1080 s

COc1ccc(-c2nnc(-c3cccc(S(=O)(=O)N4CCCC4)c3)o2)cc1OC
RP-LC retention time: 885 s

O=C1NC2(CCN(C(=O)Cc3ccccc3)CC2)Nc2c(Cl)cccc21
RP-LC retention time: 756 s

O=C(c1cc(-c2ccncc2)n[nH]1)N1CCCC(C(=O)N2CCN(c3ccc(F)cc3)CC2)C1 (configuration not stated)
RP-LC retention time: 615 s

COc1cccc(-n2c(N3CCCC(C(=O)NCCc4cccs4)C3)nc3ccsc3c2=O)c1 (configuration not stated)
RP-LC retention time: 879 s

CCCCN1CCN(C(=O)CN2CCN(Cc3ccccc3)C2=O)CC1
RP-LC retention time: 589 s

O=C(CCC1CCCN(C(=O)Nc2ccccc2)C1)NCc1ccc(F)cc1F (configuration not stated)
RP-LC retention time: 816 s

O=C(C1CCCN(c2ccc(-c3ccccc3)nn2)C1)N1CCN(c2ccccc2)CC1 (configuration not stated)
RP-LC retention time: 783 s

CC(C)(C)C(O)CCNC(=O)C(=O)NC1CC1 (configuration not stated)
RP-LC retention time: 622 s

C=CCN(Cc1nc(-c2cccc(C)c2)no1)C(=O)Nc1ccccc1C
RP-LC retention time: 1080 s

Cc1noc(C2(NC(=O)c3cc(F)cc(F)c3)CCCCC2)n1
RP-LC retention time: 916 s

CC(C)c1ccc(S(=O)(=O)N2CCC(C(=O)NCc3cscn3)CC2)cc1
RP-LC retention time: 805 s

CCOc1ccccc1N1CCN(C(=O)Cn2ccc3c(c(C)nn3-c3ccccc3)c2=O)CC1
RP-LC retention time: 844 s

COc1ccc(-c2noc(N3CCC(C(=O)NCCC4=CCCCC4)CC3)n2)cc1
RP-LC retention time: 1050 s

Cc1ccccc1CC(=O)NC(C)C(=O)Nc1nc2ccccc2[nH]1 (configuration not stated)
RP-LC retention time: 654 s

Cc1ccc(-c2nnc(Cc3nc(-c4ccccc4)no3)o2)cc1C
RP-LC retention time: 1090 s

Cc1cccc(Nc2c(-c3ccc(Br)cc3)nc3cnccn23)c1C
RP-LC retention time: 1140 s

O=C(Nc1nnc(C(F)(F)F)s1)C1CCN(C(=O)c2ccc(F)cc2)CC1
RP-LC retention time: 815 s

CCn1nnc2cc(-c3noc(CNC(=O)c4ccccc4)n3)ccc21
RP-LC retention time: 772 s

CCCCNC(=O)c1ccc2c(c1)N(C)C(=O)C1CCCCN21 (configuration not stated)
RP-LC retention time: 813 s

CN(C)c1nn(CC(=O)NCc2ccc3c(c2)OCO3)c(=O)c2ccccc12
RP-LC retention time: 765 s

CCN(CC)Cc1nc(-c2ccc(N3CCSCC3)nc2)no1
RP-LC retention time: 632 s

COc1cc(NC(=O)NC(C)C(=O)N2CCc3ccccc32)cc(OC)c1 (configuration not stated)
RP-LC retention time: 817 s

Cc1nc(CC(=O)Nc2nc(-c3ccc(Cl)cc3)c(C)s2)cs1
RP-LC retention time: 983 s

Cc1ccc(CNC(=O)c2cc3c(n(-c4ccc(C(F)(F)F)cc4)c2=O)CCCC3=O)o1
RP-LC retention time: 634 s

COC(=O)c1sccc1NC(=O)N1CCCC1c1noc(COc2ccc(F)cc2)n1 (configuration not stated)
RP-LC retention time: 1040 s

CCS(=O)(=O)N1CC(=O)N(c2ccc(C)cc2)C(C)(C(=O)NCc2ccc(F)cc2)C1 (configuration not stated)
RP-LC retention time: 834 s
